Assay results as given in patent publication US20080146593A1, “Substituted 5-Phenyl Pyrimidines I In Therapy” (Basf Aktiengesellschaft, priority 2005, published 2008).

System: HeLa cells
Experiment: Measurement of the cell cycle inhibition in HeLa cells
Assay type: cell-based
Conditions: HeLa B cells, 20 h incubation with compound; FACS ratio G0/G1 to G2/M vs DMSO; concentration at which 50% of cells are in cell cycle arrest
Method: Measurement of the Cell Cycle Inhibition in HeLa Cells—Test Procedure:
HeLa B cells are grown in DMEM (Life Technologies Cat No 21969-035) supplemented with 10% Fetal Calf Serum (FCS, Life Technologies Cat No 10270-106) in 180 cm^2 Flasks at 37° C., 92% humidity and 7% CO2.
Cells are seeded at 5×10^4 cells per well in a 24-well plate. Twenty hours later the compounds are added such that the final concentration is 1×10^−6, 3.3×10^−7, 1.1×10^−7, 3.7×10^−8, 1.2×10^−8 and 1×10^−9 M in a final volume of 500 μl. DMSO alone is added to 6 wells as a control. Cells are incubated with the compounds as above for 20 h. Then cells are observed under the microscope to check for cell death, and the 24-well plate is then centrifuged at 1200 rpm for 5 min at 20° C., acceleration position 7 and break position 5 (Eppendorf centrifuge 5804R).
The supernatant is removed and the cells lysed with 0.5 ml RNase Buffer (10 mM NaCitrate, 0.1% Nonidet NP40, 50 μg/ml RNase, 10 μg/ml Propidium iodide) per well. The plates are then incubated for at least 30 min in the dark at RT and the samples then transferred to FACS tubes. Samples are measured in a FACS machine (Beckton Dickinson) at the following settings:
Instrument Settings of the FACS Calibur:
The ratio of cells in G0/G1-phase to G2/M phase is calculated and compared to the value for the controls (DMSO) only. Results are given in table 2 as the IC50 value calculated from the concentration curve plotted against the cell cycle ratio and indicate the compound concentration at which 50% of cells are in cell cycle arrest after treatment with the compound.

Row | Structure (SMILES) | IC50 [nM]
1 | CC1CCN(c2nc(-n3cccn3)nc(Cl)c2-c2c(F)cccc2Cl)CC1 [Example 66] | 37
2 | CC(C)C(C)Nc1nc(-c2ccccn2)nc(Cl)c1-c1c(F)cccc1F (stereo not drawn) [Example 82] | 30
3 | Cc1nc(C)n(-c2nc(Cl)c(-c3c(F)cccc3Cl)c(N3CCC(C)CC3)n2)n1 [Example 85] | 21
4 | CC1CCN(c2nc(-n3cncn3)nc(Cl)c2-c2c(F)cc(F)cc2F)CC1 [Example 28] | 17
5 | CON=C(N)c1nc(Cl)c(-c2ccc(F)cc2Cl)c(N2CCCC2C)n1 (stereo not drawn) [Example 170] | 59
6 | COc1cc(F)c(-c2c(Cl)nc(-c3ccccn3)nc2NC2CCCC2)c(F)c1 [Example 64] | 21
7 | CCC(C)Nc1nc(-n2ccnn2)nc(Cl)c1-c1c(F)cccc1Cl (stereo not drawn) [Example 107] | 39
8 | CC1CCCCN1c1nc(-n2cccn2)nc(Br)c1-c1c(F)cc(F)cc1F (stereo not drawn) [Example 161] | 50
9 | Cc1nc(C)n(-c2nc(Cl)c(-c3c(F)cc(F)cc3F)c(N3CC=CCC3)n2)n1 [Example 59] | 43
10 | COc1cc(F)c(-c2c(Cl)nc(C(N)=O)nc2N2CCC(C)CC2)c(F)c1 [Example 188] | 30
11 | Fc1cc(F)c(-c2c(Cl)nc(-c3nccs3)nc2NC2CCCC2)c(F)c1 [Example 40] | 23
12 | CC1CCN(c2nc(-c3ccccn3)nc(Cl)c2-c2c(F)cc(O)cc2F)CC1 [Example 73] | 11
13 | Cc1ccn(-c2nc(Cl)c(-c3c(F)cccc3Cl)c(NC(C)C)n2)n1 [Example 20] | 39
14 | CC1CCN(c2nc(-n3cccn3)nc(Cl)c2-c2c(F)cccc2F)CC1 [Example 115] | 23
15 | CC1CCCN1c1nc(-n2cncn2)nc(Cl)c1-c1c(F)cc(F)cc1F (stereo not drawn) [Example 75] | 14
16 | Cc1ccc(-c2c(Cl)nc(-n3cncn3)nc2N[C@@H](C)C(C)C)c(F)c1 [Example 100] | 40
17 | CC1CCN(c2nc(C(N)=NO)nc(Cl)c2-c2c(F)cccc2F)CC1 [Example 194] | 21
18 | CCC(C)Nc1nc(-n2cncn2)nc(Cl)c1-c1c(C)cccc1F (stereo not drawn) [Example 110] | 25

Row | Structure (SMILES) | IC50 [nM]
19 | CC(=O)NC(=O)c1nc(Cl)c(-c2c(F)cccc2F)c(N2CCC(C)CC2)n1 [Example 184] | 51
20 | CC1CCCCN1c1nc(-n2cccn2)nc(Cl)c1-c1c(F)cccc1F (stereo not drawn) [Example 125] | 38
21 | CC1CCN(c2nc(-n3cncn3)nc(Cl)c2-c2c(F)cccc2Cl)CC1 [Example 47] | 26
22 | CCCC(C)Nc1nc(-n2ccc(N)n2)nc(Cl)c1-c1ccc(C)cc1F (stereo not drawn) [Example 121] | 50
23 | CC1CCN(c2nc(-n3ccnn3)nc(Cl)c2-c2ccc(F)cc2Cl)CC1 [Example 119] | 48
24 | CC1CCCCN1c1nc(-n2ccc(N)n2)nc(Cl)c1-c1c(F)cccc1F (stereo not drawn) [Example 127] | 37
25 | Fc1cc(F)c(-c2c(Cl)nc(-n3cc(Br)cn3)nc2N2CCCCC2)c(F)c1 [Example 53] | 26
26 | Cc1ccc(-c2c(Cl)nc(-n3ccc(N)n3)nc2NCC(F)(F)F)c(F)c1 [Example 149] | 41
27 | COc1ccc(-c2c(Cl)nc(C(C)=NO)nc2N[C@@H](C)C(C)C)c(Cl)c1 [Example 200] | 47
28 | CCC(C)Nc1nc(-n2ccc(N)n2)nc(Cl)c1-c1c(C)cccc1F (stereo not drawn) [Example 143] | 32
29 | CC1CCN(c2nc(C(N)=O)nc(Cl)c2-c2c(F)cccc2F)CC1 [Example 179] | 53
30 | CCC(C)Nc1nc(-n2cccn2)nc(Cl)c1-c1ccc(C)cc1F (stereo not drawn) [Example 97] | 13
31 | Cc1ccc(-c2c(Cl)nc(-n3cccn3)nc2N2CCC(C)CC2)c(F)c1 [Example 87] | 39
32 | CC(C)[C@@H](C)Nc1nc(-n2cncn2)nc(Cl)c1-c1c(F)cccc1Cl [Example 48] | 13
33 | CC1CCCN1c1nc(-n2cccn2)nc(Cl)c1-c1c(F)cc(F)cc1F (stereo not drawn) [Example 74] | 13
34 | CC1CCCN1c1nc(-n2cccn2)nc(Cl)c1-c1c(F)cccc1F (stereo not drawn) [Example 140] | 20
35 | CCC(C)Nc1nc(-n2ccc(N)n2)nc(Cl)c1-c1c(F)cccc1Cl (stereo not drawn) [Example 148] | 34
36 | CCC(C)Nc1nc(-n2cccn2)nc(Cl)c1-c1c(F)cccc1Cl (stereo not drawn) [Example 106] | 12

Other lines, results leading:

Row | IC50 [nM] | Structure (SMILES)
37 | 27 | CON=C(N)c1nc(Cl)c(-c2ccc(OC)cc2Cl)c(N[C@@H](C)C(F)(F)F)n1 [Example 216]
38 | 26 | CC(C)C(C)Nc1nc(-c2cccnn2)nc(Cl)c1-c1c(F)cc(F)cc1F (stereo not drawn) [Example 80]
39 | 26 | Cc1ccn(-c2nc(Cl)c(-c3c(F)cc(F)cc3F)c(N[C@H](C)C(C)C)n2)n1 [Example 92]
40 | 13 | C[C@H](Nc1nc(N(C)N)nc(Cl)c1-c1c(F)cc(F)cc1F)C(F)(F)F [Example 9]
41 | 18 | C[C@H](Nc1nc(C(N)=NO)nc(Cl)c1-c1c(F)cccc1F)C(F)(F)F [Example 175]
42 | 54 | Cc1nc(C(N)=NO)nc(N[C@@H](C)C(F)(F)F)c1-c1c(F)cc(F)cc1F [Example 171]
43 | 48 | CCNc1nc(-n2cccn2)nc(Cl)c1-c1c(F)cc(F)cc1F [Example 164]
44 | 15 | Cc1nc(-n2cccn2)nc(N[C@@H](C)C(F)(F)F)c1-c1c(F)cc(F)cc1F [Example 156]
45 | 30 | CON=C(N)c1nc(Cl)c(-c2cc(F)ccc2Cl)c(N[C@@H](C)C(F)(F)F)n1 [Example 221]
46 | 53 | Fc1cc(F)c(-c2c(Cl)nc(-n3ccnn3)nc2NCC(F)(F)F)c(F)c1 [Example 212]
47 | 38 | CON=C(N)c1nc(Cl)c(-c2c(F)cccc2F)c(N[C@@H](C)C(C)C)n1 [Example 196]
48 | 26 | COc1cc(F)c(-c2c(Cl)nc(C(N)=NO)nc2N2CCC(C)CC2)c(F)c1 [Example 190]
49 | 39 | O=C1CCCN1c1nc(Cl)c(-c2c(F)cc(F)cc2F)c(NCC(F)(F)F)n1 [Example 210]
50 | 20 | CCC(C)Nc1nc(-n2ccnn2)nc(Cl)c1-c1c(F)cc(F)cc1F (stereo not drawn) [Example 91]
51 | 42 | CNC(=O)c1nc(Cl)c(-c2c(F)cc(F)cc2F)c(N[C@@H](C)C(F)(F)F)n1 [Example 174]
52 | 42 | Cc1cccc(-c2nc(Cl)c(-c3c(F)cc(F)cc3F)c(NC(C)C)n2)n1 [Example 11]
53 | 16 | Cc1cccc(-c2nc(Cl)c(-c3c(F)cc(F)cc3F)c(N[C@@H](C)C(F)(F)F)n2)n1 [Example 13]
54 | 31 | Cc1nn(-c2nc(Cl)c(-c3c(F)cc(F)cc3F)c(N[C@@H](C)C(F)(F)F)n2)c(C)c1Cl [Example 3]
55 | 14 | COc1ccc(-c2c(Cl)nc(C(N)=NO)nc2N[C@@H](C)C(F)(F)F)c(Cl)c1 [Example 215]
56 | 14 | Cc1ccnc(-c2nc(Cl)c(-c3c(F)cc(F)cc3F)c(N[C@@H](C)C(F)(F)F)n2)c1 [Example 14]

Row | IC50 [nM] | Structure (SMILES)
57 | 26 | COc1c(C)cnn1-c1nc(Cl)c(-c2c(F)cc(F)cc2F)c(N[C@@H](C)C(F)(F)F)n1 [Example 154]
58 | 11 | CON=C(N)c1nc(Cl)c(-c2c(F)cc(OC)cc2F)c(N[C@@H](C)C(F)(F)F)n1 [Example 182]
59 | 21 | C[C@H](Nc1nc(C(N)=NO)nc(Cl)c1-c1ccc(F)cc1Cl)C(F)(F)F [Example 172]
60 | 26 | CC(C)[C@H](C)Nc1nc(-n2ccnn2)nc(Cl)c1-c1c(F)cc(F)cc1F [Example 139]
61 | 20 | C[C@H](Nc1nc(-n2cccn2)nc(F)c1-c1c(F)cc(F)cc1F)C(F)(F)F [Example 167]
62 | 42 | CON=C(N)c1nc(Cl)c(-c2c(F)cc(OC)cc2F)c(N2CCC(C)CC2)n1 [Example 197]
63 | 46 | C=C(C)CNc1nc(-n2ccc(N)n2)nc(Cl)c1-c1c(F)cc(F)cc1F [Example 122]
64 | 18 | NC(=NO)c1nc(Cl)c(-c2c(F)cc(F)cc2F)c(NCC(F)(F)F)n1 [Example 173]
65 | 15 | C[C@H](Nc1nc(-n2cccn2)nc(Br)c1-c1c(F)cc(F)cc1F)C(F)(F)F [Example 207]
66 | 23 | C[C@H](Nc1nc(C(N)=O)nc(Cl)c1-c1c(F)cc(F)cc1F)C(F)(F)F [Example 159]
67 | 47 | CC(C)Nc1nc(-n2ccc(N)n2)nc(Cl)c1-c1c(F)cc(F)cc1F [Example 104]
68 | 21 | C[C@H](Nc1nc(C(N)=NOC(F)F)nc(Cl)c1-c1c(F)cc(F)cc1F)C(F)(F)F [Example 177]
69 | 39 | Cc1cn(-c2nc(Cl)c(-c3c(F)cc(F)cc3F)c(NC(C)C(F)(F)F)n2)nc1-c1ccco1 (stereo not drawn) [Example 95]
70 | 33 | COc1cc(F)c(-c2c(Cl)nc(C(N)=O)nc2N[C@@H](C)C(C)C)c(F)c1 [Example 199]
71 | 20 | C[C@H](Nc1nc(C(N)=NO)nc(Cl)c1-c1c(F)cccc1Cl)C(F)(F)F [Example 176]
72 | 25 | CCC(C)Nc1nc(-c2csc(C)n2)nc(Cl)c1-c1c(F)cc(F)cc1F (stereo not drawn) [Example 71]
73 | 7.6 | CC1CCCN1c1nc(-n2ccnn2)nc(Cl)c1-c1c(F)cc(F)cc1F (stereo not drawn) [Example 76]
74 | 23 | COc1cc(F)c(-c2c(Cl)nc(-c3ccccn3)nc2NC(C)C)c(F)c1 [Example 62]
75 | 39 | Cc1ccn(-c2nc(Cl)c(-c3c(F)cc(F)cc3F)c(NC(C)C)n2)n1 [Example 18]
